Values of other authors, collected in article PMC4041784, “Stereoselective Property of 20(S)-Protopanaxadiol Ocotillol Type Epimers Affects Its Absorption and Also the Inhibition of P-Glycoprotein” (PLoS ONE, 2014).

How the values were obtained:
[1] = parameters: method as in PMID 21258738, PMID 15734156
[2] = not told
[3] = tested on: peroxisome proliferator activated receptor-γ; parameters: method as in PMID 22234331
human fecal microflora = tested on: human fecal microflora; parameters: method as in PMID 11824558

Row | Compound | oral bioavailability [1] | permeability [2] | other results
1 | CC(C)=CCC[C@](C)(O)[C@H]1CC[C@]2(C)[C@@H]1[C@H](O)C[C@@H]1[C@@]3(C)CC[C@H](O[C@@H]4O[C@H](CO)[C@@H](O)[C@H](O)[C@H]4O)C(C)(C)[C@@H]3CC[C@]12C [Rh2, ginsenoside Rh2] | less than 5% | – | –
2 | CC(C)=CCC[C@](C)(O)[C@H]1CC[C@]2(C)[C@@H]1[C@H](O)C[C@@H]1[C@@]3(C)CC[C@H](O[C@@H]4O[C@H](CO)[C@@H](O)[C@H](O)[C@H]4O[C@@H]4O[C@H](CO)[C@@H](O)[C@H](O)[C@H]4O)C(C)(C)[C@@H]3CC[C@]12C [Rg3, Ginsenoside Rg3] | less than 5% | – | –
3 | CC(C)=CCCC(C)(O)C1CCC2C1C(O)CC1C2(C)CCC2C(C)(C)C(OC3OC(CO)C(O)C(O)C3O)CCC21C [20(S)-Rh2] | – | 0.3 ×10⁻⁶ cm/s | permeability difference between 20(R)-Rh2 and 20(S)-Rh2 [2]: 15 folds
4 | 20(S)-Rg3 | – | – | peroxisome proliferator activated receptor-γ activity relative to 20(R)-Rg3 [3]: 10 fold; transformation amount into 20(S)-Rh2 or 20(S)-PPD relative to 20(R)-Rg3 (human fecal microflora): 19 fold
5 | CC(C)=CCC[C@@](C)(O)[C@H]1CC[C@]2(C)[C@@H]1[C@H](O)C[C@@H]1[C@@]3(C)CC[C@H](O[C@@H]4O[C@H](CO)[C@@H](O)[C@H](O)[C@H]4O)C(C)(C)[C@@H]3CC[C@]12C [20(R)-Rh2] | – | 0.02 ×10⁻⁶ cm/s | –
